Laboratory results taken from the CheMixHub viscosity set.

Assay: xn = mol fraction of the nth substance listed

CCCN + CO
298.15 K, 100 kPa
Conditions	viscosity [mPa·s]
x2 = 0.0987	0.4013
x2 = 0.1995	0.4374
x2 = 0.2868	0.4756
x2 = 0.397	0.5323
x2 = 0.4985	0.5872
x2 = 0.5475	0.6104
x2 = 0.6249	0.6414
x2 = 0.6977	0.658
x2 = 0.8	0.652
x2 = 0.8982	0.6144
x2 = 0.9499	0.5827

CN1CCCN(C)C1=O + CCCCCCCCn1cc[n+](C)c1.[Cl-]
308.15 K, 100 kPa
Conditions	viscosity [mPa·s]
x2 = 0.0999	7.275
x2 = 0.2997	61.15

O=C(O)c1ccco1 + O=C1CCCCCN1
101 kPa, x2 = 0.5
Conditions	viscosity [mPa·s]
303.1 K	179.6
313.2 K	79.63
323.1 K	44.44

CCCN + COCCOC
298.15 K, 101 kPa
Conditions	viscosity [mPa·s]
x1 = 0.0189	0.415
x2 = 0.0057	0.356
x2 = 0.0115	0.357
x2 = 0.032	0.358
x2 = 0.0568	0.36
x2 = 0.0815	0.362
x2 = 0.1075	0.364
x2 = 0.1552	0.368
x2 = 0.1871	0.369
x2 = 0.2467	0.372
x2 = 0.2882	0.373
x2 = 0.3386	0.374
x2 = 0.3526	0.374
x2 = 0.3761	0.374
x2 = 0.4134	0.375
x2 = 0.4707	0.378
x2 = 0.5131	0.38
x2 = 0.5662	0.381
x2 = 0.6099	0.383
x2 = 0.6466	0.386
x2 = 0.7017	0.39
x2 = 0.74	0.392
x2 = 0.8022	0.397
x2 = 0.833	0.399
x2 = 0.8785	0.403
x2 = 0.9167	0.408
x2 = 0.9436	0.411

CCC(CC)CO + CO
298.15 K, 101.33 kPa
Conditions	viscosity [mPa·s]
x2 = 0.1241	4.806
x2 = 0.2054	4.143
x2 = 0.3133	3.38
x2 = 0.4534	2.454
x2 = 0.5051	2.214
x2 = 0.6004	1.744
x2 = 0.7073	1.33
x2 = 0.8019	1.041
x2 = 0.9015	0.7598

CCCN + CCCCO
Conditions	viscosity [mPa·s]
298.15 K, 100 kPa, x2 = 0.0488	0.3946
298.15 K, 100 kPa, x2 = 0.0977	0.4367
298.15 K, 100 kPa, x2 = 0.2026	0.552
298.15 K, 100 kPa, x2 = 0.2966	0.6772
298.15 K, 100 kPa, x2 = 0.4	0.8384
298.15 K, 100 kPa, x2 = 0.4939	1.003
298.15 K, 100 kPa, x2 = 0.58	1.166
298.15 K, 100 kPa, x2 = 0.645	1.305
298.15 K, 100 kPa, x2 = 0.7024	1.45
298.15 K, 100 kPa, x2 = 0.7958	1.721
298.15 K, 100 kPa, x2 = 0.9025	2.113
303.15 K, 101 kPa, x1 = 0.01186	2.214
303.15 K, 101 kPa, x1 = 0.02208	2.185
303.15 K, 101 kPa, x1 = 0.03071	2.16
303.15 K, 101 kPa, x1 = 0.04153	2.133
303.15 K, 101 kPa, x1 = 0.04894	2.113
303.15 K, 101 kPa, x1 = 0.06228	2.083
303.15 K, 101 kPa, x1 = 0.07291	2.053
303.15 K, 101 kPa, x1 = 0.07608	2.038
303.15 K, 101 kPa, x1 = 0.08641	2.013
303.15 K, 101.33 kPa, x1 = 0.0967	2.02
303.15 K, 101.33 kPa, x1 = 0.186	1.771
303.15 K, 101.33 kPa, x1 = 0.2863	1.501
303.15 K, 101.33 kPa, x1 = 0.4131	1.177
303.15 K, 101.33 kPa, x1 = 0.514	0.9669
303.15 K, 101.33 kPa, x1 = 0.6196	0.7833
303.15 K, 101.33 kPa, x1 = 0.7178	0.6396
303.15 K, 101.33 kPa, x1 = 0.8121	0.5233
303.15 K, 101.33 kPa, x1 = 0.9017	0.433
313.15 K, 101.33 kPa, x1 = 0.0967	1.617
313.15 K, 101.33 kPa, x1 = 0.186	1.427
313.15 K, 101.33 kPa, x1 = 0.2863	1.218
313.15 K, 101.33 kPa, x1 = 0.4131	0.9675
313.15 K, 101.33 kPa, x1 = 0.514	0.7924
313.15 K, 101.33 kPa, x1 = 0.6196	0.6548
313.15 K, 101.33 kPa, x1 = 0.7178	0.5412
313.15 K, 101.33 kPa, x1 = 0.8121	0.4506
313.15 K, 101.33 kPa, x1 = 0.9017	0.3783
